Where no end group is shown, it is not given here.
Experiments:
[1] = tested on: MRSA T144; experiment: microbe, parasite or virus in culture; assay type: cell-based, Staphylococcus aureus; conditions: T144
Protocol: (§1) S. aureus ATCC 29213, E. coli ATCC 25922, S. enteritidis ATCC 13076 and A. baumannii ATCC 19609 were obtained from the American Type Culture Collection (ATCC). The remaining strains used in the experiment were all preserved strains in our laboratory. All strains were cultured in nutrient broth overnight to the logarithmic phase at 37 °C prior to each experiment.
(§2) The MICs of all drugs were determined by micro-broth dilution method according to CLSI 2018 guidelines. Briefly, a single colony of the bacterial strain was transferred to 1 mL of Mueller Hilton broth (MHB) and overnight at 37 °C and then 10 μL were cultured in a new 1 mL medium for 4 to 6 h, and then the bacterial culture at the logarithmic phase was diluted to 1 × 10^6 CFUs/mL. The assay was performed by adding 100 μL of each peptide solution at various concentrations (0.25 to 128 μg/mL) and 100 μL of diluted bacterial culture to different wells of a 96-well microtiter plate (Corning, NY, USA). After incubation at 37 °C for 16 to 18 h and then read its MIC value. MIC value is defined as the lowest drug concentration without visible bacteria.

[2] = tested on: MRSA 1530; experiment: microbe, parasite or virus in culture; assay type: cell-based, Staphylococcus aureus; conditions: 1530
Protocol: as §1, §2

[3] = tested on: P. cibarius HNCF44W (blaNDM-1+ tet(X6)); experiment: organism not typed; assay type: cell-based
Protocol: as §1, §2

[4] = tested on: E. faecalis A4 (VRE, VanA); experiment: microbe, parasite or virus in culture; assay type: cell-based; conditions: A4 (VRE, VanA)
Protocol: as §1, §2

[5] = tested on: E. coli C3 (blaNDM-1); experiment: microbe, parasite or virus in culture; assay type: cell-based; conditions: C3 (blaNDM-1)
Protocol: as §1, §2

[6] = tested on: E. coli 1F28 (tet(X4)); experiment: microbe, parasite or virus in culture; assay type: cell-based; conditions: 1F28 (tet(X4))
Protocol: as §1, §2

[7] = tested on: P. aeruginosa PA14; experiment: microbe, parasite or virus in culture; assay type: cell-based; conditions: PA14
Protocol: as §1, §2

[8] = tested on: S. aureus 215 (cfr + LZD^R); experiment: microbe, parasite or virus in culture; assay type: cell-based; conditions: S. aureus 215 (cfr + LZD^R); micro-broth dilution CLSI 2018, MHB, 37 °C, 16 to 18 h
Protocol: as §1, §2

[9] = tested on: E. coli B3-1 (tet(X4)); experiment: microbe, parasite or virus in culture; assay type: cell-based; conditions: B3-1 (tet(X4))
Protocol: as §1, §2

[10] = tested on: P. aeruginosa (VIM + tmexCD1-torJ1); experiment: microbe, parasite or virus in culture; assay type: cell-based; conditions: VIM + tmexCD1-torJ1
Protocol: as §1, §2

[11] = tested on: S. enteritidis ATCC 13076; experiment: microbe, parasite or virus in culture; assay type: cell-based; conditions: ATCC 13076
Protocol: as §1, §2

[12] = tested on: E. coli ATCC 25922; experiment: microbe, parasite or virus in culture; assay type: cell-based; conditions: ATCC 25922
Protocol: as §1, §2

[13] = tested on: S. aureus ATCC 29213; experiment: microbe, parasite or virus in culture; assay type: cell-based; conditions: ATCC 29213
Protocol: as §1, §2

[14] = tested on: E. coli B2 (blaNDM-5 + mcr-1); experiment: microbe, parasite or virus in culture; assay type: cell-based; conditions: B2 (blaNDM-5 + mcr-1)
Protocol: as §1, §2

[15] = tested on: A. baumannii ATCC 19609; experiment: microbe, parasite or virus in culture; assay type: cell-based; conditions: ATCC 19609
Protocol: as §1, §2

[16] = tested on: E. coli G6 (blaNDM-5); experiment: microbe, parasite or virus in culture; assay type: cell-based; conditions: G6 (blaNDM-5)
Protocol: as §1, §2

[17] = tested on: E. coli CP131 (mcr-3); experiment: microbe, parasite or virus in culture; assay type: cell-based; conditions: CP131 (mcr-3)
Protocol: as §1, §2

[18] = tested on: E. coli G92 (mcr-1); experiment: microbe, parasite or virus in culture; assay type: cell-based; conditions: G92 (mcr-1)
Protocol: as §1, §2

[19] = tested on: S. aureus G16 (RIF^R); experiment: microbe, parasite or virus in culture; assay type: cell-based; conditions: S. aureus G16 (RIF^R); micro-broth dilution CLSI 2018, MHB, 37 °C, 16 to 18 h
Protocol: as §1, §2

[20] = tested on: E. coli B2; assay type: cell-based
Protocol: as §2
(§3) Then, the antibacterial activity of the peptides affected by different temperatures and pH were determined according to the determination steps of MICs test.
(§4) In MHB medium, Na^+, K^+, Mg^2+ and Ca^2+ with the final concentrations of 10 mM, fetal bovine serum, plasma or DMEM medium (Hyclone, Logan, UT, USA) with the final concentrations of 10% was added, and then MIC values were measured to evaluate the effects of different cations, serum and plasma on the antibacterial activity of peptides.
(§5) The peptide was incubated with protease (pepsin, trypsin and papain) (Solarbio, Beijing, China) with a final concentration of 1 mg/mL at 37 °C for 1 h, then the mixture of peptide and protease was heated at 100 °C for 30 min, then centrifuged at 13,000× g for 30 min, and the supernatant was taken for MIC determination.

[21] = tested on: MRSA T144; assay type: cell-based, Staphylococcus aureus
Protocol: as §2, §3, §4, §5

Sequence: GWKSFFKKFKHVWK [GK-3]
- MIC [1]: 8 µg/mL
- MIC [2]: 16 µg/mL
- MIC [3]: 8 µg/mL
- MIC [4]: 32 µg/mL
- MIC [5]: 4 µg/mL
- MIC [6]: 16 µg/mL
- MIC [7]: 64 µg/mL
- MIC [8]: 4 µg/mL
- MIC [9]: 2 µg/mL
- MIC [10]: 16 µg/mL
- MIC [11]: 4 µg/mL
- MIC [12]: 8 µg/mL
- MIC [13]: 4 µg/mL
- MIC [14]: 4 µg/mL
- MIC [15]: 4 µg/mL
- MIC [16]: 4 µg/mL
- MIC [17]: 2 µg/mL
- MIC [18]: 2 µg/mL
- MIC [19]: 8 µg/mL
- MIC after treatment at 121 °C ([20]; B2): 4 µg/mL
- MIC in DMEM (10%) ([20]; B2): 4 µg/mL
- MIC in Plasma (10%) ([20]; B2): 0.5 µg/mL
- MIC in Serum (10%) ([20]; B2): 8 µg/mL
- MIC in presence of Ca^2+ ([20]; B2): >128 µg/mL
- MIC in presence of K^+ ([20]; B2): 2 µg/mL
- MIC in presence of Mg^2+ ([20]; B2): 32 µg/mL
- MIC in presence of Na^+ ([20]; B2): 2 µg/mL
- MIC, Control ([20]; B2): 4 µg/mL
- MIC after Papain treatment ([20]; B2, 1 h): >128 µg/mL
- MIC after Pepsin treatment ([20]; B2, 1 h): 64 µg/mL
- MIC after Trypsin treatment ([20]; B2, 1 h): >128 µg/mL
- MIC after treatment at 40 °C ([20]; B2, 1 h): 2 µg/mL
- MIC after treatment at 60 °C ([20]; B2, 1 h): 2 µg/mL
- MIC after treatment at 80 °C ([20]; B2, 1 h): 2 µg/mL
- MIC after treatment at 100 °C ([20]; B2, 1 h): 4 µg/mL
- MIC after treatment at pH 2 ([20]; B2, 1 h, pH 2): 4 µg/mL
- MIC after treatment at pH 4 ([20]; B2, 1 h, pH 4): 2 µg/mL
- MIC after treatment at pH 6 ([20]; B2, 1 h, pH 6): 2 µg/mL
- MIC after treatment at pH 8 ([20]; B2, 1 h, pH 8): 2 µg/mL
- MIC after treatment at pH 10 ([20]; B2, 1 h, pH 10): 2 µg/mL
- MIC after treatment at pH 12 ([20]; B2, 1 h, pH 12): 2 µg/mL
- MIC after treatment at 121 °C ([21]; T144): 8 µg/mL
- MIC in DMEM (10%) ([21]; T144): 4 µg/mL
- MIC in Plasma (10%) ([21]; T144): 4 µg/mL
- MIC in Serum (10%) ([21]; T144): 8 µg/mL
- MIC in presence of Ca^2+ ([21]; T144): >128 µg/mL
- MIC in presence of K^+ ([21]; T144): 4 µg/mL
- MIC in presence of Mg^2+ ([21]; T144): 8 µg/mL
- MIC in presence of Na^+ ([21]; T144): 2 µg/mL
- MIC, Control ([21]; T144): 8 µg/mL
- MIC after Papain treatment ([21]; T144, 1 h): >128 µg/mL
- MIC after Pepsin treatment ([21]; T144, 1 h): 64 µg/mL
- MIC after Trypsin treatment ([21]; T144, 1 h): >128 µg/mL
- MIC after treatment at 40 °C ([21]; T144, 1 h): 4 µg/mL
- MIC after treatment at 60 °C ([21]; T144, 1 h): 2 µg/mL
- MIC after treatment at 80 °C ([21]; T144, 1 h): 4 µg/mL
- MIC after treatment at 100 °C ([21]; T144, 1 h): 8 µg/mL
- MIC after treatment at pH 2 ([21]; T144, 1 h, pH 2): 4 µg/mL
- MIC after treatment at pH 4 ([21]; T144, 1 h, pH 4): 4 µg/mL
- MIC after treatment at pH 6 ([21]; T144, 1 h, pH 6): 4 µg/mL
- MIC after treatment at pH 8 ([21]; T144, 1 h, pH 8): 4 µg/mL
- MIC after treatment at pH 10 ([21]; T144, 1 h, pH 10): 4 µg/mL
- MIC after treatment at pH 12 ([21]; T144, 1 h, pH 12): 4 µg/mL
